For data set [1], the system named is sensitized cebus monkeys. To be noted: for Number of Monkeys with Dyskinetic Reactions/Number Tested: observed eight hours; for duration of reactions / intensity of reactions: typical reactions.
Text: The compound of Formula II, clozapine, thioridazine or haloperidol were each orally administered to sensitized cebus monkeys. They were then observed in their home cages continuously for eight hours and occurrences of dyskinetic reactions noted.
For a further data set, the system named is schizophrenic patients. The conditions noted are these: background statement; cited from earlier work.
Data set [2] has as its system sensitized cebus monkeys. To be noted: background statement; cited from earlier work.
Data set [3] deals with apomorphine-induced climbing. To be noted: for Mean Climb Score: 13-14 min after apomorphine HCl 1.25 mg/kg s.c., vehicle 24. As to the method:
(§1) A number of tests are recognized as showing antidopaminergic activity of a compound and/or as being predictive of antipsychotic activity in mammals. For these tests a compound of formula II in the form of a salt (for example, as described in Example 2) was used. All dosages in the tables are expressed as free base.
This test has been described by Ther and Schramm [Arch int. Pharmacodyn., 138: 302 (1962); Peuch, Simon and Boissier, Eur. J. Pharm., 50: 291 (1978)]. Mice that are administered an appropriate dose of apomorphine (a dopamine agonist) will climb the walls of a cage or other suitable structure and remain at or near the top for 20-30 minutes. Untreated mice on the other hand will occasionally climb up and then climb down. […] The antagonism of apomorphine-induced climbing in mice is therefore an indication of the potential dopamine blocking activity of the agent. Since dopamine blocking agents are typically antipsychotic agents, the test is considered to be evidence for potential antipsychotic activity of the agent. The vehicle itself [hydroxypropylmethylcellulose (HPMC) 0.5% w/v, polyoxyethylene (20) sorbitan monooleate (Tween 80) .1% w/v, and distilled water] or the vehicle with the test compound of the present invention was administered orally to twenty mice in graded doses. After 30 minutes, apomorphine HCl was administered subcutaneously at 1.25 mg/kg and the mice were placed in cages containing 28 horizontal rungs, upon which the mice could climb. Thirteen minutes later they were scored for climbing. The climbing score was the mean of the highest and lowest rungs on which the mouse climbed during a one-minute time period from 13 ° 14 minutes after apomorphine.

The subject of data set [4] is amphetamine-induced hyperactivity. To be noted: for Activity Score (0-2 Hr) (Mean Number of Crossings of Center Line of Alley): vehicle 148. As to the method: A number of tests are recognized as showing antidopaminergic activity of a compound and/or as being predictive of antipsychotic activity in mammals. For these tests a compound of formula II in the form of a salt (for example, as described in Example 2) was used. All dosages in the tables are expressed as free base. This test has been described by Swerdlow and Koob [Pharmacol. Biochem. and Behav., 23: 303 (1985)]. Rats that are administered amphetamine at a moderate dose become hyperactivity. The hyperactivity can last for several hours, and can be measured in various ways, for example, by counting the number of times the rat walks from one end of a long alley to the other end. […] The hyperactivity of […]-treated rats can be antagonized (prevented) by pretreatment with dopamine-blocking agents. […] The compound of the present invention as the HCl salt or the vehicle (vehicle is defined in Example 5) were administered orally to 20 rats and […] injected intraperitoneally. Activity (walking back and forth in a long alley) was recorded for two hours.

Data set [5] concerns rat striatal homovanillic acid (HVA). The conditions noted are these: rat striatum, HPLC.
Text: as §1
(§2) Among the various pharmacological effects of antipsychotics, their action as dopamine antagonists in the brain has been extensively investigated. Enhancement of dopamine metabolism (dihydroxyphenylacetic acid and homovanillic acid (DOPAC and HVA)) by antipsychotic agents has been attributed to a blockade of dopamine receptors [A. Carlson and M. Lindquist, Acta. Pharmac. Tox., (1963) 20: 140]. The effects of a compound of the invention on DOPAC and HVA levels in the rat striatum were measured by HPLC using electrochemcial detection according to the method of Saller and Salama [J. Chromatography, (1984) 309: 287].

The subject of data set [6] is rat striatal dihydroxyphenylacetic acid (DOPAC). To be noted: rat striatum, HPLC.
Text: as §1, §2

The test system of the next data set is squirrel monkeys. To be noted: for Number of Monkeys Scoring 75% (Or Less) Avoidance Responses/Number Tested: vehicle 0/20.
Text: as §1
The conditioned avoidance test has been described by Herz, A., Int. Rev. Neurobiol., (1960) 2: 229-277. In this test, a warning stimulus is presented for five seconds. The monkeys are trained to press a lever to turn off the warning stimulus thereby avoiding the delivery of electric shocks at 1/sec for 10 seconds that would begin at the end of the warning stimulus. If there is no response during the warning stimulus (no avoidance response) and the shocks begin, a response during the shocks stops the shocks. Trials of this type are repeated every minute for six hours. […] A compound of the present invention Formula II (HCl salt) was administered orally and the conditioned avoidance test was administered. The vehicle used was that defined in Example 5.

For data set [7] the following is noted: at therapeutic doses.
Setting [8] is: 20 mg/kg p.o., one of two reacting monkeys.

Each structure is given as a SMILES string. Counter-ions that a name gives are not always drawn. Like-named read-outs stand apart in the source and are kept apart here.

For `CSc1ccc2c(c1)N(CCC1CCCCN1C)c1ccccc1S2` (stereo not drawn) [Thioridazine, reference compound], the “Number of Monkeys with Dyskinetic Reactions/Number Tested” value in the data set on sensitized cebus monkeys [1] (10 mg/kg p.o.) is reported as 11/13. In addition, in the data set with sensitized cebus monkeys [1] (oral), the duration of reactions entry is given as “several” and the intensity of reactions result is reported as “moderate or high intensity”.
As to `CN1CCN(C2=Nc3cc(Cl)ccc3Nc3ccccc32)CC1` [Clozapine, reference compound], in the data set with schizophrenic patients, the tardive dyskinesia reported entry is “no tardive dyskinesia reported”. The “dyskinetic reaction in sensitized cebus monkeys” value with sensitized cebus monkeys [2] was “does not produce a dyskinetic reaction”. The “Number of Monkeys with Dyskinetic Reactions/Number Tested” value was 0/1 with sensitized cebus monkeys [1] (10 mg/kg p.o.), 0/13 with sensitized cebus monkeys [1] (20 mg/kg p.o.), 0/11 with sensitized cebus monkeys [1] (40 mg/kg p.o.) and 0/5 in the data set on sensitized cebus monkeys [1] (60 mg/kg p.o.).
Regarding `OCCOCCN1CCN(C2=Nc3ccccc3Sc3ccccc32)CC1` [Formula II (HCl salt), 11-[4-[2-(2-Hydroxyethoxy)ethyl]-1-piperaziny]dibenzo [b,f][1,4]thiazepine, hydrochloride salt], the “Mean Climb Score” value in data set [3] (10 mg/kg i.p. (head; text: orally)) is recorded as 24; in data set [3] (20 mg/kg i.p. (head; text: orally)), 15; in [3] (40 mg/kg i.p. (head; text: orally)) it was 2; in data set [3] (80 mg/kg i.p. (head; text: orally)), 0. Besides, the “antagonism of apomorphine-induced climbing” value in [3] (result in words) is reported as “antagonized the climbing”. The “Activity Score (0-2 Hr) (Mean Number of Crossings of Center Line of Alley)” value in data set [4] (10 mg/kg p.o., p < .05) was 118.3 Crossings; in data set [4] (20 mg/kg p.o., p < .0005) it was 92.4 Crossings; in data set [4] (40 mg/kg p.o., p < .0005) it was 64.3 Crossings; in [4] (80 mg/kg p.o., p < .0005), 39.8 Crossings. For the same compound, the “antagonism of amphetamine-induced hyperactivity” value in data set [4] (result in words) is listed as “antagonized the hyperactivity”. Further, the “% Control HVA” value in data set [5] (10 mg/kg i.p.) was 140 % Control; in data set [5] (20 mg/kg i.p.) it was 210 % Control; in [5] (40 mg/kg i.p.) it was 260 % Control. Moreover, the “% Control DOPAC” value in data set [6] (10 mg/kg i.p.) is recorded as 145 % Control; in data set [6] (20 mg/kg i.p.), 220 % Control; in data set [6] (40 mg/kg i.p.), 300 % Control. Further, the “Number of Monkeys Scoring 75% (Or Less) Avoidance Responses/Number Tested” value in the data set on squirrel monkeys (5 mg/kg p.o.) is reported as 0/4; in the data set with squirrel monkeys (10 mg/kg p.o.), 15/20; in the data set with squirrel monkeys (20 mg/kg p.o.), 19/20. Further, the “reduction of avoidance responses” value in the data set with squirrel monkeys (result in words, oral) is “marked reduction of avoidance responses”. For the same compound, the “Number of Monkeys with Dyskinetic Reactions/Number Tested” value is 0/13 in the data set on sensitized cebus monkeys [1] (2.5 mg/kg p.o.); 1/13 in the data set with sensitized cebus monkeys [1] (5 mg/kg p.o.); 1/13 in the data set on sensitized cebus monkeys [1] (10 mg/kg p.o.); 2/13 in the data set on sensitized cebus monkeys [1] (20 mg/kg p.o., hydrochloride salt); “two of thirteen” in the data set on sensitized cebus monkeys [1] (20 mg/kg p.o., listed as compound of the present invention, hydrochloride salt); 0/4 in the data set with sensitized cebus monkeys [1] (40 mg/kg p.o.). The duration of reaction result with sensitized cebus monkeys [1] (10 mg/kg) is given as “about twenty”; with sensitized cebus monkeys [1] (setting [8]), “about five”. The intensity of reaction result is recorded as “weak” in the data set with sensitized cebus monkeys [1] (10 mg/kg) and “extremely weak” with sensitized cebus monkeys [1] (setting [8]). The “dyskinetic and dystonic reactions” value in the data set on sensitized cebus monkeys [1] (compared to haloperidol or thioridazine, oral) was “markedly fewer dyskinetic and dystonic reactions”. The “intensity of the reactions” value in the data set on sensitized cebus monkeys [1] (compared to thioridazine or haloperidol, oral) is on record as “less than that of thioridazine or haloperidol”.
In the case of `OCCOCCN1CCN(C2=Nc3ccccc3Sc3ccccc32)CC1` [Formula II, 11-[4-[2-(2-Hydroxyethoxy)ethyl]-1-piperazinyl]-dibenzo[b,f][1,4]thiazepine], the overt toxicity entry in [7] is “No overt toxicity”.
In the case of `O=C(CCCN1CCC(O)(c2ccc(Cl)cc2)CC1)c1ccc(F)cc1` [Haloperidol, reference compound], the “Number of Monkeys with Dyskinetic Reactions/Number Tested” value with sensitized cebus monkeys [1] (1.0 mg/kg p.o.) is 13/13. Moreover, in the data set with sensitized cebus monkeys [1] (oral), the duration of reactions entry was “several” and the intensity of reactions result is “moderate or high intensity”.
